Format in all cases: cell-based
Experiment [1] concerns Fra-1 mRNA in RAW264.7 cells. The experiment can be described thus: RT-PCR, RANKL-induced mRNA expression of Fra-1. The conditions noted are these: for RANKL-induced mRNA expression level of Fra-1: RAW264.7 cells, 24 hours, CTL 100%, mean ± SEM. An excerpt: (§1) The culture medium was discarded. […] [table] f) Running • A.
In experiment [2] the test system is p65 in the cell nucleus of RAW264.7 cells. Put plainly: Western blot, amount of p65 in nuclei induced by RANKL. The conditions noted are these: KMUP-1 in advance 24 hours, RANKL 30 minutes, FIG. 8(B). As to the method: IκBα which originally binds with NF-κB to inhibit its activity in cytoplasm is stimulated by RANKL to be phosphorylized and be hydrolyzed after separating from NF-κB. Then, the free NF-κB transfers into a cell nucleus to play a role as a transcription factor. According to the experimental result, compared with the control group, in the group induced by RANKL for 30 minutes, the IκBα in the cytoplasm is obviously phosphorylized and hydrolyzed. […] According to the result, KMUP-1 can inhibit NF-κB activation induced by RANKL. Nuclear proteins were extracted according to the instructions of NE-PER kit. 2.5×10^6 cells were plated per well in 24-well plates. […] Subsequently, the cells were added by 5.5 μ[…] and shaken for 5 seconds and then put on ice for 1 minute. After that, the cells were shaken again for 5 seconds and centrifuged (10,000 rpm, 4° C., 5 minutes). Cytoplasm and Nuclei could be separated by this process, and the supernatant was cytoplasmic proteins, and the pallet was nuclei. The supernatant was stored in an eppendorf in -80° C. b) Extraction of Nuclear Proteins The nuclear pallet was added by 500 μl PBS and centrifuged (10,000 rpm, 4° C., 5 minutes), and the supernatant was discarded. The pallet could be washed by this process and prevented contamination. […]
For orientation: Immunoblotting shows a protein as a band on a membrane.

Experiment [3] relates to NFATc1 mRNA in RAW264.7 cells. Put plainly: RT-PCR, RANKL-induced mRNA expression of NFATc1. The conditions noted are these: for RANKL-induced mRNA expression level of NFATc1: RAW264.7 cells, 24 hours, CTL 100%, mean ± SEM.
From the text: as §1

Experiment [4] concerns MMP-9 enzyme activity of RAW264.7 cells. Put plainly: Gelatin zymography, enzyme activity of MMP-9 induced by RANKL. The conditions noted are these: 10 μM, RANKL 24 hours, FIG. 21. As to the method: KMUP-1 influences there major up-stream signal transduction pathways which are related to RANK/RANKL. Western blot is used to estimate the amount of matrix metalloproteinase (MMP)-2 and MMP-9 which are related to the dissolution of osteoclast-like cells, and the enzyme activity of MMP-2 and MMP-9 are estimated via Gelatin Zymography. […] After 24 hours reaction, the reaction fluid was centrifuged (13,000 rpm, 4° C., 20 minutes), and then the supernatant was stored in −80° C. • b) 10% gel preparation. 10 mg gelatin was added by 1 ml ddH2O and then was heated in water bath until the solution was clear. • c) Concentrations of the proteins were examined by Bio-Red DC Protein Assay. After knowing the concentrations, the proteins were diluted to specific concentrations by adding ddH2O. One forth volume of the diluted proteins of sample buffer was added into the diluted proteins. After shaking, the diluted proteins could be added into wells of the gel. Subsequently, 1× running buffer was added with the gel, and then the gel was run at 100 V for 10 minutes until the proteins were driven to the intersection between a loading gel and a running gel. Then, the voltage was swopped to 200 V for 60 minutes. • d) After electrophoresis, the loading gel was discarded, and the left gel was washed by TritonX-100 buffer for 30 minutes in room temperature twice. […]

The mark [5] stands for this setting: 10 ng/ml RANKL, summary of Table 1.

Marks after values point to notes of the source that are not given here.

`Cn1c(=O)c2c(ncn2CCN2CCN(c3ccccc3Cl)CC2)n(C)c1=O` [KMUP-1, 7-[2-[4-(2-Chlorophenyl)piperazin-1-yl]ethyl] theophylline]: in experiment [1] (setting [5]), the “effect on mRNA expression of Fra-1 induced by RANKL (in words)” value is listed as “inhibits the mRNA expression”. Also, the “RANKL-induced mRNA expression level of Fra-1” value was found to be 244.1 ± 38.9% ^b in experiment [1] (RANKL 10 ng/ml + KMUP-1 1 μM); 285.1 ± 44.8% ^b in experiment [1] (RANKL 10 ng/ml + KMUP-1 2.5 μM); 310.1 ± 56.3% ^b in experiment [1] (RANKL 10 ng/ml + KMUP-1 5 μM); 238.7 ± 49.9% ^b in experiment [1] (RANKL 10 ng/ml + KMUP-1 7.5 μM); 265.2 ± 64.1% ^b in experiment [1] (RANKL 10 ng/ml + KMUP-1 10 μM). In addition, in experiment [2], the “amount of p65 in the cell nucleus induced by RANKL” value was “has the inhibiting effect on that p65 enters into a cell nucleus”. In addition, in experiment [3] (setting [5]), the “effect on mRNA expression of NFATc1 induced by RANKL (in words)” value was “inhibits the mRNA expression”. The “RANKL-induced mRNA expression level of NFATc1” value in experiment [3] (RANKL 10 ng/ml + KMUP-1 1 μM) is given as 256.9 ± 7.5%; in experiment [3] (RANKL 10 ng/ml + KMUP-1 2.5 μM), 184.7 ± 4.2% ^b; in experiment [3] (RANKL 10 ng/ml + KMUP-1 5 μM), 161.8 ± 2.9% ^b; in experiment [3] (RANKL 10 ng/ml + KMUP-1 7.5 μM), 132.9 ± 2.4% ^b; in experiment [3] (RANKL 10 ng/ml + KMUP-1 10 μM), 121.5 ± 4.5% ^b. Also, the “enzyme activity of MMP-9 induced by RANKL” value in experiment [4] was “can reduce the enzyme activity of MMP-2 and MMP-9”.

Values taken from patent publication US8507506B2, “Theophylline derivative inhibits osteoporosis” (Kaohsiung Medical University, priority 2011, dated 2013).
